# Data reported in US7087214B2, “Water-soluble porphyrin platinum compounds with high tumor selectivity and their use for the treatment of benign and malignant tumor diseases” (Zentaris GmbH, priority 2002, dated 2006).
# Experiments:
# TCC-SUP cells = experiment: End-point chemosensitivity assay, hematoporphyrin platinum derivatives, dark and irradiated (600–730 nm); format: cell-based, human; conditions: 1 μM concentration; hematoporphyrin-platinum series; bladder cancer cells TCC-SUP
# Description: (§1) Data of the cytotoxic effect was obtained, for instance, on the human tumor cell lines TCC-SUP and J82. The effect of the compounds was investigated in the dark and under irradiation with light at a wavelength of 600–730 nm. Selected compounds are clearly more activ cytotoxically under irradiation. There is a synergism between the cytotoxic effect of the platinum component and the photodynamic principle.
# (§2) To determine the antiproliferative activity of the new porphyrin ligands and the corresponding platinum complexes with different amine non-leaving groups two bladder cancer cell lines TCC-SUP and J82 were selected as in vitro models.
# (§3) To discriminate between the cytotoxic and phototoxic effects all experiments were carried out in duplicate. The cells were seeded into microplates and the test compounds were added after 48 h. One batch of the microplates was kept in the dark until the end of the experiment, whereas the other microplates were irradiated 48 h after addition of the substances for 10 min with a light dose of 24 J·cm^−2, before the plates were reincubated in the dark.
# (§4) End-Point Chemosensitivity Assay.
# Hematoporphyrin Platinum Derivatives Type.
# [1] = tested on: bladder cancer cell lines TCC-SUP and J82; experiment: End-point chemosensitivity assay, tetraarylporphyrin platinum derivatives, dark and irradiated (600–730 nm); format: cell-based, human; conditions: 1 μM concentration; tetraarylporphyrin-platinum series
# Description: as §1, §2, §3, §4
# Tetraarylporphyrin Platinum Derivatives Type.
Compound,T/Ccorr. (TCC-SUP cells),T/Ccorr. [1] [%]
N.N.[Cl][Pt][Cl] [cisplatin],approximately 2%,
"(+)-trans-1,2-Diaminocyclohexane[2-(4-{10,15,20-tris[4-(1,4,7,10-tetraoxaundecyl)phenyl]porphyrin-5-yl}phenoxy)malonato]platinum(II) [compound 29]",,~57
